Measured values: ChEMBL document CHEMBL1201862, “PubChem BioAssay data set” (2004)
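In this assay, cells in 96-well plates receive the compound at five concentrations for 48 hours. Endpoints are linearly interpolated between the surrounding concentrations. Here, GI50 denotes the concentration required for 50% inhibition of growth.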 Calls of active or inactive are those of the source. Cut-off read from the data, not from the text of the source: active = GI50 up to about 1.1 µM and inactive = higher.

What was measured:
Experiment in all cases: DTP human tumour cell line panel, 48 h
[1] = test system: K562
[2] = test system: M19-MEL
[3] = test system: DMS-114
[4] = test system: DLD-1
[5] = test system: HCT-116
[6] = test system: HL-60
[7] = test system: SF-295
[8] = test system: RXF 393
[9] = test system: DMS-273
[10] = test system: U-251
[11] = test system: OVCAR-4
[12] = test system: ACHN
[13] = test system: LOX IMVI
[14] = test system: A498
[15] = test system: LXFL 529
[16] = test system: MOLT-4
[17] = test system: SK-MEL-28
[18] = test system: HOP-92
[19] = test system: HT-29
[20] = test system: IGROV-1
[21] = test system: TK-10
[22] = test system: CCRF-CEM
[23] = test system: 786-0
[24] = test system: SF-268
[25] = test system: CAKI-1
[26] = test system: SNB-78
[27] = test system: NCI-H226
[28] = test system: SNB-19
[29] = test system: SF-539
[30] = test system: M14
[31] = test system: OVCAR-3
[32] = test system: SK-MEL-2
[33] = test system: Malme-3M
[34] = test system: UACC-62
[35] = test system: COLO 205
[36] = test system: SK-OV-3
[37] = test system: SN12C
[38] = test system: SNB-75
[39] = test system: NCI-H522
[40] = test system: NCI-H23
[41] = test system: SW-620
[42] = test system: OVCAR-5
[43] = test system: RPMI-8226
[44] = test system: KM12
[45] = test system: UACC-257
[46] = test system: KM-20L2
[47] = test system: NCI-H460
[48] = test system: UO-31
[49] = test system: SK-MEL-5
[50] = test system: RXF 631
[51] = test system: HOP-62
[52] = test system: OVCAR-8
[53] = test system: A549
[54] = test system: HCC 2998
[55] = test system: HCT-15
[56] = test system: HOP-18
[57] = test system: EKVX
[58] = test system: SR

Compound: Sc1nnc(COc2ccc(Cl)cc2)[nH]1
- GI50 [1]: > 100 µM (inactive)
- GI50 [2]: > 100 µM (inactive)
- GI50 [3]: > 100 µM (inactive)
- GI50 [4]: > 100 µM (inactive)
- GI50 [5]: > 100 µM (inactive)
- GI50 [6]: > 100 µM (inactive)
- GI50 [7]: > 100 µM (inactive)
- GI50 [8]: > 100 µM (inactive)
- GI50 [9]: > 100 µM (inactive)
- GI50 [10]: > 100 µM (inactive)
- GI50 [11]: > 100 µM (inactive)
- GI50 [12]: > 100 µM (inactive)
- GI50 [13]: > 100 µM (inactive)
- GI50 [14]: > 100 µM (inactive)
- GI50 [15]: > 100 µM (inactive)
- GI50 [16]: > 100 µM (inactive)
- GI50 [17]: > 100 µM (inactive)
- GI50 [18]: > 100 µM (inactive)
- GI50 [19]: > 100 µM (inactive)
- GI50 [20]: > 100 µM (inactive)
- GI50 [21]: > 100 µM (inactive)
- GI50 [22]: > 100 µM (inactive)
- GI50 [23]: > 100 µM (inactive)
- GI50 [24]: > 100 µM (inactive)
- GI50 [25]: > 100 µM (inactive)
- GI50 [26]: > 100 µM (inactive)
- GI50 [27]: > 100 µM (inactive)
- GI50 [28]: > 100 µM (inactive)
- GI50 [29]: > 100 µM (inactive)
- GI50 [30]: > 100 µM (inactive)
- GI50 [31]: > 100 µM (inactive)
- GI50 [32]: > 100 µM (inactive)
- GI50 [33]: > 100 µM (inactive)
- GI50 [34]: > 100 µM (inactive)
- GI50 [35]: > 100 µM (inactive)
- GI50 [36]: > 100 µM (inactive)
- GI50 [37]: > 100 µM (inactive)
- GI50 [38]: > 100 µM (inactive)
- GI50 [39]: > 100 µM (inactive)
- GI50 [40]: > 100 µM (inactive)
- GI50 [41]: > 100 µM (inactive)
- GI50 [42]: > 100 µM (inactive)
- GI50 [43]: > 100 µM (inactive)
- GI50 [44]: > 100 µM (inactive)
- GI50 [45]: > 100 µM (inactive)
- GI50 [46]: > 100 µM (inactive)
- GI50 [47]: > 100 µM (inactive)
- GI50 [48]: > 100 µM (inactive)
- GI50 [49]: > 100 µM (inactive)
- GI50 [50]: > 100 µM (inactive)
- GI50 [51]: > 100 µM (inactive)
- GI50 [52]: > 100 µM (inactive)
- GI50 [53]: > 100 µM (inactive)
- GI50 [54]: > 100 µM (inactive)
- GI50 [55]: > 100 µM

Compound: CC(C)=CC(=O)Cc1nc2cc(C)c(C)cc2[nH]c1=O
- GI50 [1]: > 100 µM (inactive)
- GI50 [56]: > 100 µM (inactive)
- GI50 [2]: > 100 µM (inactive)
- GI50 [57]: 9.89 µM (inactive)
- GI50 [4]: > 100 µM (inactive)
- GI50 [5]: > 100 µM (inactive)
- GI50 [6]: > 100 µM (inactive)
- GI50 [7]: 90.4 µM (inactive)
- GI50 [8]: 64.9 µM (inactive)
- GI50 [9]: > 100 µM (inactive)
- GI50 [10]: > 100 µM (inactive)
- GI50 [11]: 87.1 µM (inactive)
- GI50 [12]: > 100 µM (inactive)
- GI50 [13]: > 100 µM (inactive)
- GI50 [14]: > 100 µM (inactive)
- GI50 [15]: > 100 µM (inactive)
- GI50 [16]: > 100 µM (inactive)
- GI50 [17]: > 100 µM (inactive)
- GI50 [18]: 24.9 µM (inactive)
- GI50 [19]: > 100 µM (inactive)
- GI50 [20]: > 100 µM (inactive)
- GI50 [21]: > 100 µM (inactive)
- GI50 [22]: > 100 µM (inactive)
- GI50 [23]: > 100 µM (inactive)
- GI50 [24]: 99.3 µM (inactive)
- GI50 [25]: > 100 µM (inactive)
- GI50 [26]: > 100 µM (inactive)
- GI50 [27]: > 100 µM (inactive)
- GI50 [28]: > 100 µM (inactive)
- GI50 [29]: > 100 µM (inactive)
- GI50 [30]: > 100 µM (inactive)
- GI50 [31]: > 100 µM (inactive)
- GI50 [32]: > 100 µM (inactive)
- GI50 [33]: > 100 µM (inactive)
- GI50 [34]: > 100 µM (inactive)
- GI50 [35]: > 100 µM (inactive)
- GI50 [36]: > 100 µM (inactive)
- GI50 [37]: > 100 µM (inactive)
- GI50 [38]: > 100 µM (inactive)
- GI50 [40]: > 100 µM (inactive)
- GI50 [41]: > 100 µM (inactive)
- GI50 [42]: > 100 µM (inactive)
- GI50 [58]: > 100 µM (inactive)
- GI50 [43]: > 100 µM (inactive)
- GI50 [44]: > 100 µM (inactive)
- GI50 [45]: > 100 µM (inactive)
- GI50 [46]: > 100 µM (inactive)
- GI50 [47]: > 100 µM (inactive)
- GI50 [48]: 75 µM (inactive)
- GI50 [49]: > 100 µM (inactive)
- GI50 [50]: > 100 µM (inactive)
- GI50 [51]: 17.9 µM (inactive)
- GI50 [53]: > 100 µM (inactive)
- GI50 [54]: > 100 µM (inactive)
- GI50 [55]: > 100 µM
